Measurements from patent publication US6953789B2, “Thiol compounds, their production and use” (Takeda Chemical Industries, Ltd., priority 1998, dated 2005).

Target: T1, recombinant human MMP-13 (Homo sapiens, UniProt P45452)
T1 construct: made in house; host or cells: baculovirus (pBlueBac4 / Bac-N-Blue; virus made in Sf9), expressed in High-Five insect cells; culture supernatant used
Experiment: Assay of MMP-13 inhibiting activity (fluorogenic peptide substrate)
Format: biochemical
Details: 37° C., 2 hours
How it was run: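 Baculovirus-expressed human MMP-13 (High-Five cell supernatant) in pH 7.5 Tris buffer with 200 mM NaCl, 20 mM CaCl2, 0.1% Brij 35, 1 mM 2-mercaptoethanol; reaction started with 40 μM (stock) MOCAc-PLGL-A2pr(DNP)-AR-NH2, 2 h at 37 °C, stopped at pH 3.0. Fluorescence 330/405 nm; IC50 versus no-compound control.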

Row | IC50 (Table 10) | Compound | further results
1 | 90 nM | O=C1CC(S)CN1Cc1ccc(Cc2ccccc2)cc1 (stereo not drawn) [Example 160, 4-Mercapto-1-(4-benzylbenzyl)pyrrolidin-2-one] | –
2 | 200 nM | CC(=O)SC1CC(=O)N(Cc2ccc(C(=O)c3ccccc3)cc2)C1 (stereo not drawn) [Example 161, 4-Acetylthio-1-(4-benzoylbenzyl)pyrrolidin-2-one] | –
3 | 20 nM | O=C(c1ccccc1)c1ccc(CN2CC(S)CC2=O)cc1 (stereo not drawn) [Example 162, 4-Mercapto-1-(4-benzoylbenzyl)pyrrolidin-2-one] | –
4 | 500 nM | CC(=O)SC1CC(=O)N(Cc2ccc(COc3ccccc3)cc2)C1 (stereo not drawn) [Example 163, 4-Acetylthio-1-(4-phenoxymethylbenzyl)pyrrolidin-2-one] | –
5 | 80 nM | O=C1CC(S)CN1Cc1ccc(COc2ccccc2)cc1 (stereo not drawn) [Example 164, 4-Mercapto-1-(4-phenoxymethylbenzyl)pyrrolidin-2-one] | –
6 | 1000 nM | CC(=O)SC1CC(=O)N(Cc2ccc(OCc3ccccc3)cc2)C1 (stereo not drawn) [Example 165, 4-Acetylthio-1-(4-benzyloxybenzyl)pyrrolidin-2-one] | –
7 | 100 nM | O=C1CC(S)CN1Cc1ccc(OCc2ccccc2)cc1 (stereo not drawn) [Example 166, 4-Mercapto-1-(4-benzyloxybenzyl)pyrrolidin-2-one] | –
8 | 400 nM | CC(=O)SC1CC(=O)N(Cc2ccc(CCc3ccccc3)cc2)C1 (stereo not drawn) [Example 167, 4-Acetylthio-1-(4-phenethylbenzyl)pyrrolidin-2-one] | –
9 | 70 nM | O=C1CC(S)CN1Cc1ccc(CCc2ccccc2)cc1 (stereo not drawn) [Example 168, 4-Mercapto-1-(4-phenethylbenzyl)pyrrolidin-2-one] | –

The next lines start with the compound.

Row | Compound | IC50 (Table 10) | further results
10 | CCNC(=O)Nc1ccc(Oc2ccc(CN3CC(SC(C)=O)CC3=O)cc2)cc1 (stereo not drawn) [Example 148, 4-Acetylthio-1-[4-(4′-ethylaminocarbonylaminophenoxy)benzyl]pyrrolidin-2-one] | – | IC50 (Table 9): 25 nM
11 | CCNC(=O)Nc1ccc(Oc2ccc(CN3CC(S)CC3=O)cc2)cc1 (stereo not drawn) [Example 149, 4-Mercapto-1-[4-(4′-ethylaminocarbonylaminophenoxy)benzyl]pyrrolidin-2-one] | – | IC50 (Table 9): 3.5 nM
12 | CC(=O)SC1CC(=O)N(Cc2ccc(Oc3ccccc3)cc2[N+](=O)[O-])C1 (stereo not drawn) [Example 150, 4-Acetylthio-1-(2-nitro-4-phenoxybenzyl)pyrrolidin-2-one] | – | IC50 (Table 9): 5500 nM
13 | CC(=O)SC1CC(=O)N(Cc2ccc(Oc3ccccc3)c([N+](=O)[O-])c2)C1 (stereo not drawn) [Example 151, 4-Acetylthio-1-(3-nitro-4-phenoxybenzyl)pyrrolidin-2-one] | – | IC50 (Table 9): > 10000 nM
14 | CC(=O)SC1CC(=O)N(Cc2ccc(Oc3ccccc3)c(NS(C)(=O)=O)c2)C1 (stereo not drawn) [Example 152, 4-Acetylthio-1-(3-methylsulfonylamino-4-phenoxybenzyl)pyrrolidin-2-one] | – | IC50 (Table 9): > 10000 nM
15 | CS(=O)(=O)Nc1cc(CN2CC(S)CC2=O)ccc1Oc1ccccc1 (stereo not drawn) [Example 153, 4-Mercapto-1-(3-methylsulfonylamino-4-phenoxybenzyl)pyrrolidin-2-one] | – | IC50 (Table 9): 4000 nM
16 | CC(=O)SC1CC(=O)N(Cc2ccc(Sc3ccccc3)cc2)C1 (stereo not drawn) [Example 154, 4-Acetylthio-1-(4-phenylthiobenzyl)pyrrolidin-2-one] | 20 nM | –
17 | O=C1CC(S)CN1Cc1ccc(Sc2ccccc2)cc1 (stereo not drawn) [Example 155, 4-Mercapto-1-(4-phenylthiobenzyl)pyrrolidin-2-one] | 7 nM | –
18 | CC(=O)SC1CC(=O)N(Cc2ccc(Oc3ccsc3)cc2)C1 (stereo not drawn) [Example 157, 4-Acetylthio-1-[4-(3′-thienyloxy)benzyl]pyrrolidin-2-one] | – | IC50 (Table 11): 6 nM
19 | O=C1CC(S)CN1Cc1ccc(Oc2ccsc2)cc1 (stereo not drawn) [Example 158, 4-Mercapto-1-[4-(3′-thienyloxy)benzyl]pyrrolidin-2-one] | – | IC50 (Table 11): 4 nM
20 | CC(=O)SC1CC(=O)N(Cc2ccc(Cc3ccccc3)cc2)C1 (stereo not drawn) [Example 159, 4-Acetylthio-1-(4-benzylbenzyl)pyrrolidin-2-one] | 500 nM | –
21 | CC(=O)SC1CC(=O)N(CCc2ccc(Oc3ccccc3)cc2)C1 (stereo not drawn) [Example 169, S-[5-Oxo-1-(4-phenoxyphenethyl)-3-pyrrolidinyl]ethanethioate] | 7000 nM | –
